# Measurements as given in patent US20120190745A1, “ORAL COMPOSITION FOR REDUCING WRINKLE FORMATION” (SHISEIDO COMPANY. LTD., priority 2009, published 2012).
# Experiments:
# [1] = test system: tape-stripped mice; assay: Skin thickening caused by tape stripping method; format: in vivo, HR-1 hairless mice; conditions: 10 mM in drinking water for four weeks; tape stripping three times a week; negative control 1.2; p<0.1%
# Experimental: (§1) Five-week old male HR-1 hairless mice (Hoshino Laboratory Animals, Inc.) were subjected to the experiment.
# (§2) Drinking water containing 10 mM D-glutamic acid was given via a water supplying bottle for four weeks. The negative control employed was drinking water containing no D-glutamic acid.
# (§3) For the purpose of forming a wrinkle, a tape stripping method was conducted three times a week starting on five days after the initiation of the D-glutamic acid administration according to the method by Matsunaga et al. (Matsunaga, Y. et al., Br. J. Dermatol., 156:884 (2007)). […] For example when a non-treated hairless mouse was subjected to the adhesion/peeling off cycle procedures, the first treatment involved four cycles, and the second and third treatments involved each five to six cycles and the treatment in the second week and later involved six to eight cycles, whereby increasing the quantity of the horny layer water loss to about to 8 mg/cm^2/h. […]
# Four weeks after the initiation of the D-glutamic acid administration, the skin thickness was measured using a thickness gauge. The measured value of the skin thickness represented as “skin thickness×2”, since the measurement was conducted by calipering the skin with the thickness gauge.
# [2] = test system: tape-stripped mice; assay: Wrinkle formation caused by tape stripping method; format: in vivo, HR-1 hairless mice; conditions: 10 mM in drinking water for four weeks, score 0-8 per Table 1, control 3.5, p<1%
# Experimental: as §1, §2
# as §3, with “(2007)). Briefly, a 24-mm width cellophane tape (Cellotape (trade mark), Nichiban Co., Ltd.) cut in a length suited to the dorsal length of a hairless mouse (HR-1 strain; Hoshino Laboratory Animals, Inc., Tokyo) was adhered evenly over the entire dorsal area and then peeled off.” for “(2007)).”
# [3] = test system: mice irradiated with ultraviolet rays; assay: Transepidermal water loss (skin barrier function) in mice irradiated with ultraviolet rays; format: in vivo, Skh-1 hairless mice; conditions: 10 mM in drinking water for four weeks; UV-B three times a week, total 1.4 J/cm^2; control 16
# Experimental: (§4) Six week-old Skh-1 hairless mice (male) were employed.
# as §2
# (§5) UV irradiation was conducted employing a partly modified method by Schwarz et al. (Haratake, A. et al., J. Invest. Dermatol. 108:769 (1997)) in accordance with the repetitive UV-B irradiation method (Naganuma, M. et al., J. Dermatol.Sci.25:29 (2001), Schwartz, E. J., Invest. Dermatol. 91:158 (1988)). Thus, the dorsal area was irradiated with UV-B(light source: Toshiba FL-20 SE fluorescent lamp manufactured by Toshiba Electric) three times a week for four weeks. The total irradiation dose was 1.4 J/cm^2. The UV dose measured with UVRADIOMETER (UVR-305/365D(II), Topcon Corporation) was employed as a readout.
# Four weeks after the initiation of the D-glutamic acid administration, the quantity of the transepidermal water loss was measured according to a standard method.
# [4] = test system: mice irradiated with ultraviolet rays; assay: Wrinkle formation caused by UV irradiation; format: in vivo, Skh-1 hairless mice; conditions: 10 mM in drinking water for four weeks; UV-B three times a week, total 1.4 J/cm^2; score 0-8 per Table 1; control 4.9; p<1%
# Experimental: Four weeks after the initiation of the D-glutamic acid administration, the dorsal areas of the mice were photographed, and a partly modified method by Bissett et al. (Bissett, D. L. et al., Photochemistry and Photobiology, 46:367(1987)) was employed to evaluate the degree of wrinkle formation in accordance with the judgment criteria indicated in Table 1 shown below.
# as §4, §2, §5
# The wrinkle formation was evaluated by a method similar to that in Example 1.
smiles,measurement,setting,value
N[C@H](CCC(=O)O)C(=O)O [D-glutamic acid],mean value of the skin thickness (skin thickness×2),[1],1.05
same,wrinkle score,[2],1.5
same,quantity of the transepidermal water loss,[3],13
same,wrinkle score,[4],3.3
